Results taken from patent publication US5843750A, “Sorbitol kinase, process for producing the same, and substantially pure microorganism” (priority 1994, dated 1998).
Read-outs that look alike come from different tables or passages of the source.

What was measured:
[1] = target: T1, sorbitol kinase (Enterobacter ludwigii, UniProt A0AAX3LD49); assay type: biochemical, Erwinia sp. SK-472-20; set-up: SK-472-20; details: for Relative activity as phosphate donor: activity for ATP (final concentration 2 mM) set as 100%
T1 sequence (A0AAX3LD49 entry or part of it): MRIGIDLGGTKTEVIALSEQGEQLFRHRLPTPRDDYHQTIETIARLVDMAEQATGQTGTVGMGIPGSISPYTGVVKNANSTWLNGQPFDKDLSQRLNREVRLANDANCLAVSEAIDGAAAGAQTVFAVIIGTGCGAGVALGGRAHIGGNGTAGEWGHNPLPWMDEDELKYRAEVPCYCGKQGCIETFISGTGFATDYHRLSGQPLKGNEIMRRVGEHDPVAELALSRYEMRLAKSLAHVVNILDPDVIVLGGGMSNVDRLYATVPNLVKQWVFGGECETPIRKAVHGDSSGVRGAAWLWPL
Protocol: One milliliter of a reaction mixture consisting of 0.2M Tris-HCl buffer solution (pH 8.5) 0.2 ml, 0.1M ATP 0.02 ml, 0.1M MgCl2 0.02 ml, 100 U/ml sorbitol-6-phosphate dehydrogenase (refer to referential example) 0.05 ml, 10 mM NAD 0.1 ml, 100 U/ml diaphorase (Asahi Chemical Ind. Co.) 0.05 ml, 0.25% NTB 0.1 ml, 1M sorbitol 0.1 ml, 10% Triton X-100 0.01 ml and distilled water 0.3 ml was pre-heated at 37° C. for 1 minute, and the enzyme solution 20 μl was added thereto, then the mixture was incubated for 10 minutes.
Reaction was terminated by adding 0.1N HCl 2 ml and optical density of the mixture was measured using 1.0 cm cell at 550 nm within 5 minutes (As). Also optical density of distilled water 20 μl in place of the enzyme solution was measured in the same manner as above as a blank test (Ab). Enzymatic activity is determined by difference in the absorption between the optical density of the enzyme solution (As) and the blank test (Ab), i.e. (As-Ab). A unit of enzyme activity is defined as an amount of enzyme which generate 1 μm of reduced NAD in one minutes at 37° C. and calculated by the following equation.
Enzyme activity (U/ml)=(As-AB)×0.795×dilution rate of enzyme

[2] = system: sorbitol-6-phosphate dehydrogenase; assay type: biochemical, Comamonas sp. SY-77-1; details: for Relative activity (5): substrate specificity of sorbitol-6-phosphate dehydrogenase, substance used as substrate; for Relateive activity: 10 min; for Effect on sorbitol-6-phosphate dehydrogenase activity (in words): 1 mM metal ions
Protocol: Reaction mixture 1 ml consisting of 0.2M Tris-HCl buffer solution (pH 8.0) 0.25 ml, 0.1M sorbitol-6-phosphate 0.2 ml, 10 mM NAD 0.1 ml, 100 U/ml diaphorase (Asahi Chemical Industry Co.) 0.05 ml, 0.25% NTB (nitrotetrazolium blue) 0.1 ml, 10% Triton X-100 0.01 ml and distilled water 0.29 ml was pre-heated at 37° C. for 1 minute. 0.02 ml of enzyme solution was added thereto and incubated for 10 minutes.
0.1N HCl 2 ml was added to stop the reaction, and within 5 minutes optical absorption of the reaction mixture was measured using pass length 1.0 cm cell at 550 nm (As). Optical density of the blank solution of distilled water 0.02 ml in place of the enzyme solution was measured by the same procedure (Ab). Enzyme activity was measured by the difference (As-Ab) between the optical density of the enzyme solution (As) and that of the blank (Ab). A unit of enzyme is defined as an enzyme amount which produces 1μ mole of reduced NAD at 37° C. for 1 minute. Equation is as follows.
Enzyme activity (U/ml)=(As-Ab)×0.795×enzyme dilution rate

[3] = target: T1, sorbitol kinase; assay type: biochemical, Erwinia sp. SK-472-20 gene expressed in E.coli; set-up: no tag mentioned; details: for Relative activity on substrate: sorbitol set at 100%
Protocol: A reaction mixture 1 ml consisting of 100 mM Tris-HCl buffer solution (pH 8.5), 2 mM ATP, 2 mM MgCl2, 5 unit/ml sorbitol-6-phosphatedehydrogenase (refer to referential example 3), 1 mM NAD, 5 units/ml diaphorase (Asahi Chem. Ind. Co.), 0.025% nitrotetrazolium blue, 100 mMD-sorbitol and 0.1% Triton X-100 was incubated with the aliqluot diluted sonicated microbial cells 20 μl at 37° C. for 10 minutes. Reaction was stopped by adding 0.1N HCl 2.0 ml and the optical absorption at 550 nm was measured for determination of sorbitol kinase activity. For control study, sonicated E.coli DH1 harboring pUC118 was treated by the same way as above to determine activity of sorbitol kinase. […] Accordingly, the transformant having sorbitol kinase activity was confirmed. […] SK-472-20, consequently the physico-chemical properties of expressed protein was confirmed.

[4] = sorbitol-6-phosphate dehydrogenase
[5] = enzyme produced by transformant
[6] = metal ion or chemical modifier 2 mM in the presence of 2 mM magnesium ion, None = 100
[7] = 1 mM metal ion on sorbitol-6-phosphate dehydrogenase, None = 100
[8] = substrate specificity of sorbitol kinase, substance used as substrate

Nc1nc2c(ncn2[C@@H]2O[C@H](COP(=O)(O)OP(=O)(O)OP(=O)(O)O)[C@@H](O)[C@H]2O)c(=O)[nH]1 [GTP]
Relative activity as phosphate donor [1]: 11.8%

NC(=S)c1ccc[n+]([C@@H]2O[C@H](COP(=O)([O-])OP(=O)(O)OC[C@H]3O[C@@H](n4cnc5c(N)ncnc54)[C@H](O)[C@@H]3O)[C@@H](O)[C@H]2O)c1 [thio NAD]
Km [2, 4]: 140 ± 50 µM

O=P(O)(O)OC[C@H]1OC(O)[C@H](O)[C@@H](O)[C@@H]1O (some centres unmarked) [Glucose-6-phosphate]
Relative activity (5) [2]: 0

C=C(OP(=O)(O)O)C(=O)O [phosphoenolpyruvate]
Utilization as phosphate donor [3, 5]: substantially not | Utilization as phosphate donor ([1]; phosphoenolpyruvate used in place of ATP in the enzyme assay): No substantial utilization

O=C(CO)[C@@H](O)[C@H](O)[C@H](O)CO [Fructose]
Relative activity on substrate [3, 5]: 0% | Relative activity (5) [2]: 0

O=c1ccn([C@@H]2O[C@H](COP(=O)(O)OP(=O)(O)OP(=O)(O)O)[C@@H](O)[C@H]2O)c(=O)[nH]1 [UTP]
Relative activity as phosphate donor [1]: 3.6%

[Cl-].[Cs+] [CsCl]
Relative activity (%) [1, 6]: 85% | Relateive activity [2, 7]: 100

OC[C@H]1O[C@H](O[C@H]2[C@H](O)[C@@H](O)[C@H](O)O[C@@H]2CO)[C@H](O)[C@@H](O)[C@@H]1O [Maltose]
Relative activity on substrate [3, 5]: 0%

[N-]=[N+]=[N-].[Na+] [NaN3]
Relative activity (%) [1, 6]: 123%

O=C(COP(=O)(O)O)[C@@H](O)[C@H](O)[C@H](O)COP(=O)(O)O [fructose-1,6-diphosphate]
Relative activity (5) [2]: 0

O=P(O)(O)OC1O[C@H](CO)[C@@H](O)[C@H](O)[C@H]1O (some centres unmarked) [glucose-1-phosphate]
Relative activity (5) [2]: 0

[Cl][Mn][Cl] [MnCl2]
Relateive activity [2, 7]: 40

O=c1[nH]cnc2c1ncn2[C@@H]1O[C@H](COP(=O)(O)OP(=O)(O)OP(=O)(O)O)[C@@H](O)[C@H]1O [ITP]
Relative activity as phosphate donor [1]: 40.5%

O=P(O)(O)OC1O[C@H](CO)[C@H](O)[C@H](O)[C@H]1O (some centres unmarked) [Galactose-1-phosphate]
Relative activity (5) [2]: 0

OC[C@H]1O[C@@](CO)(O[C@H]2O[C@H](CO)[C@@H](O)[C@H](O)[C@H]2O)[C@@H](O)[C@@H]1O [Saccharose]
Relative activity on substrate [3, 5]: 0% | Relative activity (5) [2]: 0

[Cl-].[Cl-].[Co+2] [CoCl2]
Effect on enzyme activity (in words) [3, 5]: inhibited | Effect on sorbitol kinase activity (in words) ([1]; 2 mM, Table 2): inhibited | Relative activity (%) [1, 6]: 17.3% | Relateive activity [2, 7]: 100

OC[C@@H](O)[C@@H](O)[C@H](O)[C@@H](O)CO [Sorbitol]
Relative activity on substrate [3, 5]: 100%

[Ca+2].[Cl-].[Cl-] [CaCl2]
Effect on enzyme activity (in words) [3, 5]: activated | Relative activity (%) [1, 6]: 44.6% | Relateive activity [2, 7]: 100

[Cl-].[K+] [KCl]
Effect on sorbitol kinase activity (in words) ([1]; 2 mM, Table 2): activated | Relative activity (%) [1, 6]: 180% | Relateive activity [2, 7]: 100

Mannose
Relative activity on substrate [3, 5]: 0% | Relative activity (%) [1, 8]: 0% | Relative activity (5) [2]: 0

[Cl][Pb][Cl] [PbCl2]
Relateive activity [2, 7]: 2 | Effect on sorbitol-6-phosphate dehydrogenase activity (in words) [2]: Strong inhibition

O=P(O)(O)OC[C@H]1OC(O)[C@H](O)[C@@H](O)[C@H]1O (some centres unmarked) [galactose-6-phosphate]
Relative activity (5) [2]: 0

[Cl][Cu][Cl] [CuCl2]
Effect on enzyme activity (in words) [3, 5]: inhibited | Effect on sorbitol kinase activity (in words) ([1]; 2 mM, Table 2): inhibited | Relative activity (%) [1, 6]: 0% | Relateive activity [2, 7]: 0 | Effect on sorbitol-6-phosphate dehydrogenase activity (in words) [2]: Strong inhibition

[Ba+2].[Cl-].[Cl-] [BaCl2]
Relateive activity [2, 7]: 32

[Cl-].[Li+] [LiCl]
Relative activity (%) [1, 6]: 74.3% | Relateive activity [2, 7]: 100

Glucose
Relative activity on substrate [3, 5]: 0% | Relative activity (%) [1, 8]: 0% | Relative activity (5) [2]: 0

Xylose
Relative activity (%) [1, 8]: 0%

[Cl-].[Cl-].[Mg+2] [MgCl2]
Relateive activity [2, 7]: 100

NC(=O)c1ccc[n+]([C@@H]2O[C@H](COP(=O)([O-])OP(=O)(O)OC[C@H]3O[C@@H](n4cnc5c(N)ncnc54)[C@H](O)[C@@H]3O)[C@@H](O)[C@H]2O)c1 [NAD]
Km [2, 4]: 130 ± 50 µM

2-deoxyglucose
Relative activity (%) [1, 8]: 0%

O=P(O)(O)OC[C@@H](O)[C@@H](O)[C@H](O)[C@@H](O)CO [sorbitol-6-phosphate]
Km [2, 4]: 2000 ± 500 µM | Relative activity (5) [2]: 100

Galactose
Relative activity on substrate [3, 5]: 0% | Relative activity (%) [1, 8]: 0% | Relative activity (5) [2]: 0

OC[C@H]1O[C@H](O[C@H]2O[C@H](CO)[C@@H](O)[C@H](O)[C@H]2O)[C@H](O)[C@@H](O)[C@@H]1O [Treharose]
Relative activity (5) [2]: 0

O=C(O)CN(CCN(CC(=O)O)CC(=O)O)CC(=O)O [EDTA]
Effect on enzyme activity (in words) [3]: inhibited | Effect on sorbitol kinase activity (in words) [1]: inhibited

[Cl][Ni][Cl] [NiCl2]
Effect on enzyme activity (in words) [3, 5]: inhibited | Effect on sorbitol kinase activity (in words) ([1]; 2 mM, Table 2): inhibited | Relative activity (%) [1, 6]: 14.5% | Relateive activity [2, 7]: 100

Nc1ncnc2c1ncn2[C@@H]1O[C@H](COP(=O)(O)OP(=O)(O)OP(=O)(O)O)[C@@H](O)[C@H]1O [ATP]
Relative activity as phosphate donor [1]: 100%

O[C@H]1[C@H](O)[C@@H](O)[C@H](O)[C@@H](O)[C@H]1O [Inositol]
Relative activity on substrate [3, 5]: 0%

[Cl-].[Na+] [NaCl]
Relative activity (%) [1]: 112% | Relateive activity ([2]; sorbitol-6-phosphate dehydrogenase, 1000 µM): 100

[Cl-].[Cl-].[Zn+2] [ZnCl2]
Relateive activity [2, 7]: 6

OC[C@@H](O)[C@@H](O)[C@H](O)[C@H](O)CO [Mannitol]
Relative activity (5) [2]: 0

OC[C@H]1O[C@@H](O[C@H]2[C@H](O)[C@@H](O)C(O)O[C@@H]2CO)[C@H](O)[C@@H](O)[C@H]1O (some centres unmarked) [Lactose]
Relative activity on substrate [3, 5]: 0% | Relative activity (5) [2]: 0
